Results as given in patent US9156811B2 (priority 2008, dated 2015).
Like-named read-outs stand apart in the source and are kept apart here.

Experiments:
human NMT-1 = human NMT-1 (Homo sapiens (Human), UniProt P30419); experiment: NMT enzyme inhibition scintillation proximity assay, human NMT-1; format: biochemical
[1] = biological target: T. brucei N-myristoyl transferase (Trypanosoma brucei brucei (strain 927/4 GUTat10.1), UniProt Q388H8); experiment: biochemical; format: biochemical
[2] = biological target: L. major N-myristoyl transferase (Leishmania major, UniProt Q4Q5S8); format: biochemical; details: Leishmania major NMT; value in parentheses; read-out: IC50 (μM) NMT Enzyme (LmNMT)
[3] = system: Trypanosome (T. brucei brucei); experiment: In-vitro antitrypanosomal efficacy assay (cell growth, resazurin); format: cell-based
Procedure: To column 12, 200 μl media was added to provide a no cells control. Plates were then incubated at 37° C. in an atmosphere of 5% CO2 for 69 hours, before the addition of 20 μl of 500 μM rezasurin solution, and a further incubation period of 4 hours. […] Concentration effect curves were fitted using non-linear regression using XLFit 4.2 and EC50 values determined.

[4] = CNS penetration: drug concentration in blood and brain after i.v. dosing; format: in vivo; details: iv, female NMRI mouse, single i.v. dose 2.0 mg/kg, t = 5 min; for Kp at 5 min: brain / whole blood; for concentration at 5 min: average of three animals
Procedure: Assessment of the CNS penetration of NMT inhibitors was determined in the female NMRI mouse following i.v. dosing (n=3 per dose group, concentration measured after t=5 min).

[5] = Human NMT-1, value in parentheses, read-out: IC50 (μM) NMT Enzyme (HuNMT-1)
[6] = T. brucei NMT, value without parentheses, read-out: IC50 (μM) NMT Enzyme (T. brucei NMT)
[7] = T. brucei brucei, blood stream form, variant 221
[8] = brain, read-out: Conc (ng/ml in brain)
[9] = whole blood, read-out: Conc (ng/ml in blood)
[10] = read-out: IC50 (μM) NMT Enzyme (T. brucei NMT)
[11] = value with no enzyme tag in the cell, taken as T. brucei NMT, read-out: IC50 (μM) NMT Enzyme

Sequence of L. major N-myristoyl transferase (Q4Q5S8 1-421): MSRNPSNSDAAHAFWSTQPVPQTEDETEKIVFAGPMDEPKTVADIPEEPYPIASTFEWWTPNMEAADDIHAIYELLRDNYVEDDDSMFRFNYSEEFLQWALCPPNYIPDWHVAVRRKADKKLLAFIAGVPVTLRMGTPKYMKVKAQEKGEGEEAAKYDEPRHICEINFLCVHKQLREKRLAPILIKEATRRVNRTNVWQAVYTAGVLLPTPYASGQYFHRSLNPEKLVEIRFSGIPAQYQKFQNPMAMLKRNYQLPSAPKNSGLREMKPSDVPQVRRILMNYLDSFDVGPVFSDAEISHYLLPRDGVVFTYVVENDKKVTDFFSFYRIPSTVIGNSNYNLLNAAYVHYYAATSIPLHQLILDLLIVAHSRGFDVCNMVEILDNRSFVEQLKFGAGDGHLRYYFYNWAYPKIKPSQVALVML
Sequence of T. brucei N-myristoyl transferase (Q388H8 1-446): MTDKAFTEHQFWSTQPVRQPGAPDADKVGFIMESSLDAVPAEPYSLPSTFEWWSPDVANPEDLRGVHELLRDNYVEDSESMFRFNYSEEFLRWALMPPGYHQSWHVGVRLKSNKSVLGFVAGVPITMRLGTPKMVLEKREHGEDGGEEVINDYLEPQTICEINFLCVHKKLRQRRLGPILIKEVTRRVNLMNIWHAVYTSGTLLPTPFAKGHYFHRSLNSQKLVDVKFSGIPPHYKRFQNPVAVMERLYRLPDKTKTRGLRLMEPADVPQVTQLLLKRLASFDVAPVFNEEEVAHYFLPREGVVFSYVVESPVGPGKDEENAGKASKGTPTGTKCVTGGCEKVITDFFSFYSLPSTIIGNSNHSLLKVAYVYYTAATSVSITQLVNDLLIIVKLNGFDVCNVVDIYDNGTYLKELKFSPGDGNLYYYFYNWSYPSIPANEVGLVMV
Sequence of human NMT-1 (P30419 whole entry): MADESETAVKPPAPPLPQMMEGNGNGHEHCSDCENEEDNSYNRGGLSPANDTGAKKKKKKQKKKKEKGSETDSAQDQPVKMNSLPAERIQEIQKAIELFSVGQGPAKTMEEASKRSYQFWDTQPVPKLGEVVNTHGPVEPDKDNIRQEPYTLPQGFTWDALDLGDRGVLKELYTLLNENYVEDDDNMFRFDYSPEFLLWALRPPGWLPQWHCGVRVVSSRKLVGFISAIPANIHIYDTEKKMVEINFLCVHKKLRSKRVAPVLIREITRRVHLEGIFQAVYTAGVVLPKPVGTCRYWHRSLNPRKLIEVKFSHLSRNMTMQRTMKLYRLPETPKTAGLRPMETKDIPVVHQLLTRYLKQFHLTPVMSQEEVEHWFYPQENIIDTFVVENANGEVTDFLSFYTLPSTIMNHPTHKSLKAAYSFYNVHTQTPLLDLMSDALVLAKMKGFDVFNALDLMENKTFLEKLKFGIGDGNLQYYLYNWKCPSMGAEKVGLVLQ

SMILES | IC50 (human NMT-1; [5]) | IC50 [1, 6] | IC50 [2] | ED50 (μM) T. brucei [3, 7] | further results
Cc1c(N[S+](=O)([O-])c2ccc(Br)cc2)c(CCc2ccccc2)nn1C [DDD100880] | > 1 µM | > 1 µM | > 1 µM | 21.4 µM | –
Cc1c(N[S+](=O)([O-])c2ccc(-c3cccc(C(C)(C)N(C)C)c3)cc2)c(CC(C)C)nn1C [DDD100863] | – | 0.006 µM | 0.091 µM | 0.015 µM | –
Cc1c(N[S+](=O)([O-])c2ccc(CCCCC3CCN(C)CC3)cc2)c(Cc2ccccc2)nn1C [DDD100883] | > 1 µM | 0.023 µM | 0.672 µM | 0.427 µM | –
Cc1nn(C)c(C)c1N[S+](=O)([O-])c1ccc(-c2cccc(-c3cn(C)cn3)c2)cc1 [DDD100873] | > 1 µM | 13.8 µM | > 1 µM | >1 µM | –
Cc1c(N[S+](=O)([O-])c2ccc(-c3cccc(CN4CCCC4C)c3)cc2)c(CC(C)C)nn1C (centres unmarked) [DDD100804] | – | 0.006 µM | 0.077 µM | 0.035 µM | –
Cc1nn(C)c(C)c1N(C(F)F)[S+](=O)([O-])c1c(Cl)cc(CCCC2CCN(C)CC2)cc1Cl [DDD100097, 2,6-dichloro-N-(difluoromethyl)-4-(3-(1-methylpiperidin-4-yl)propyl)-N-(1,3,5-trimethyl-1H-pyrazol-4-yl)benzenesulfonamide] | – | – | – | 0.001 µM | Kp at 5 min [4]: 1.5; concentration at 5 min [4, 8]: 335 ng/mL; concentration at 5 min [4, 9]: 224 ng/mL
CCCCc1nn(C)c(C)c1N[S+](=O)([O-])c1ccc(Br)cc1 [DDD100875] | > 1 µM | 2.68 µM | > 1 µM | 20.5 µM | –
Cc1nn(C)c(C)c1N(C(F)F)[S+](=O)([O-])c1c(Cl)cc(CCCCCCn2ccnc2)cc1Cl [DDD100156] | 1.1 µM | – | 0.048 µM | 0.148 µM | IC50 [1, 10]: 0.016 µM
Cc1c(N[S+](=O)([O-])c2ccc(-c3cccc(CNC(C)C)c3)cc2)c(CC(C)C)nn1C [DDD100799] | – | 0.02 µM | 0.47 µM | 0.293 µM | –
Cc1c(N[S+](=O)([O-])c2ccc(CCCC3CCN(C)CC3)cc2)c(Cc2ccccc2)nn1C [DDD100881] | – | 0.02 µM | 0.778 µM | 0.234 µM | –
Cc1c(N[S+](=O)([O-])c2ccc(-c3cccc(CN(C)Cc4cccnc4)c3)cc2)c(CC(C)C)nn1C [DDD100796] | > 1 µM | 0.86 µM | > 1 µM | >1 µM | –
Cc1nn(C)c(C)c1N[S+](=O)([O-])c1ccc(-c2cccc(-c3nccn3C)c2)cc1 [DDD100874] | > 1 µM | 0.74 µM | > 1 µM | >1 µM | –
Cc1c(N[S+](=O)([O-])c2ccc(-c3ccc4c(c3)CN(C)CC4)cc2)c(CC(C)C)nn1C [DDD100876] | – | 0.006 µM | 0.059 µM | 0.014 µM | –
Cc1nn(C)c(C)c1N[S+](=O)([O-])c1ccc(-c2cccc(-c3c[nH]cn3)c2)cc1 [DDD100879] | 2.6 µM | 0.803 µM | 1.59 µM | >1 µM | –
CCCc1nn(C)c(C)c1N[S+](=O)([O-])c1ccc(Br)cc1 [DDD100871] | > 1 µM | 7.95 µM | > 1 µM | 51.0 µM | –
Cc1nn(C)c(C)c1N(CC(F)(F)F)[S+](=O)([O-])c1c(Cl)cc(CCCC2CCN(C)CC2)cc1Cl [DDD100153, 2,6-dichloro-4-(3-(1-methylpiperidin-4-yl)propyl)-N-(2,2,2-trifluoroethyl)-N-(1,3,5-trimethyl-1H-pyrazol-4-yl)benzenesulfonamide] | – | – | – | 0.023 µM | Kp at 5 min [4]: 0.64; concentration at 5 min [4, 8]: 171 ng/mL; concentration at 5 min [4, 9]: 269 ng/mL
Cc1nn(C)c(C)c1N[S+](=O)([O-])c1ccc(-c2cccc(-c3ncc[nH]3)c2)cc1 [DDD100884] | > 1 µM | 1.08 µM | > 1 µM | >1 µM | –

SMILES | IC50 (human NMT-1; [5]) | IC50 [1, 6] | IC50 [2] | ED50 (μM) T. brucei [3, 7] | further results
Cc1c(N[S+](=O)([O-])c2ccc(-c3cccc(CNCc4cccnc4)c3)cc2)c(CC(C)C)nn1C [DDD100793] | – | 0.026 µM | 1.4 µM | 0.54 µM | –
Cc1c(N[S+](=O)([O-])c2ccc(-c3cccc(CN(C)C)c3)cc2)c(CCc2ccccc2)nn1C [DDD100885] | – | 0.032 µM | 0.211 µM | 9.72 µM | –
Cc1nn(C)c(C)c1N[S+](=O)([O-])c1ccc(-c2cccc(-c3nccn3C)c2)cc1 [DDD100878] | 2.4 µM | 0.262 µM | 0.906 µM | >1 µM | –
Cc1c(N[S+](=O)([O-])c2ccc(-c3ccc(F)c(CN4CCCC4)c3)cc2)c(CC(C)C)nn1C [DDD100806] | – | 0.004 µM | 0.224 µM | 0.033 µM | –
Cc1nn(C)c(C)c1N(C(F)F)[S+](=O)([O-])c1c(Cl)cc(CCCCCCn2ccnc2C(C)C)cc1Cl [DDD100791] | 2.1 µM | – | 0.044 µM | 0.344 µM | IC50 [1, 10]: 0.21 µM
Cc1c(N[S+](=O)([O-])c2ccc(-c3cccc(CNCCc4cccnc4)c3)cc2)c(CC(C)C)nn1C [DDD100869] | – | 0.004 µM | 0.019 µM | 5.7 µM | –
Cc1c(N[S+](=O)([O-])c2ccc(-c3ccc(CN(C)C)cc3)cc2)c(CC(C)C)nn1C [DDD100865] | – | 0.097 µM | 1.9 µM | 7.3 µM | –
Cc1c(N[S+](=O)([O-])c2ccc(-c3ccc4c(c3)CNCC4)cc2)c(CC(C)C)nn1C [DDD100801] | – | 0.004 µM | 0.011 µM | 0.014 µM | –
Cc1ccncc1N[S+](=O)([O-])c1c(Cl)cc(-c2ccnc(N3CCNCC3)c2)cc1Cl [DDD88322] | – | – | – | – | IC50 (human NMT-1; HuNMT-1): 1.5 µM; IC50 [1, 11]: 0.182 µM; ED50 (μM) T. brucei ([3]; T. brucei cell growth): 1.93 µM
Cc1c(N[S+](=O)([O-])c2ccc(Br)cc2)cnn1C [DDD88326] | – | – | – | – | IC50 (human NMT-1; HuNMT-1): > 100 µM; IC50 [1, 11]: > 100 µM; ED50 (μM) T. brucei ([3]; T. brucei cell growth): >10 µM
Cc1nn(C)c(C)c1N(C)[S+](=O)([O-])c1ccc(CCCCCn2ccnc2)cc1 [DDD99735] | – | – | – | – | IC50 (human NMT-1; HuNMT-1): 2.9 µM; IC50 [1, 11]: 0.83 µM; ED50 (μM) T. brucei ([3]; T. brucei cell growth): >1 µM
Cc1nn(C)c(C)c1N(C)[S+](=O)([O-])c1ccc(CCCn2ccnc2)cc1 [DDD99750] | – | – | – | – | IC50 (human NMT-1; HuNMT-1): > 1 µM; IC50 [1, 11]: > 1 µM; ED50 (μM) T. brucei ([3]; T. brucei cell growth): >1 µM
Cc1c(N[S+](=O)([O-])c2ccc(-c3cccc(CNCCc4ccccn4)c3)cc2)c(CC(C)C)nn1C [DDD100882] | – | 0.305 µM | > 1 µM | 2.45 µM | –
CCc1nn(C)c(CC)c1NS(=O)(=O)c1c(Cl)cc(Br)cc1Cl [DDD99835] | > 1 µM | 0.38 µM | – | >1 µM | –
CCCc1nn(C)c(C)c1N[S+](=O)([O-])c1ccc(-c2cccc(CN(C)C)c2)cc1 [DDD100867] | – | 0.006 µM | 0.074 µM | 0.048 µM | –
Cc1c(N[S+](=O)([O-])c2ccc(-c3ccccc3CN(C)C)cc2)c(CC(C)C)nn1C [DDD100862] | – | 0.358 µM | > 1 µM | >1 µM | –
CCCCc1nn(C)c(C)c1N[S+](=O)([O-])c1ccc(-c2cccc(CN(C)C)c2)cc1 [DDD100866] | – | 0.01 µM | 0.054 µM | 3.2 µM | –
